Results reported in patent US20230364057A1, “BACTERIAL DNA GYRASE INHIBITORS AND METHODS OF USE THEREOF” (THE FLORIDA INTERNATIONAL UNIVERSITY BOARD OF TRUSTEES, priority 2022, published 2023).
Values after ≈ are worked out from the molar mass of the structure shown.

How the values were obtained:
MRSA = assay: Minimum inhibitory concentration, broth microdilution; conditions: Staphylococcus aureus, MRSA, read-out: Minimum Inhibitory Concentration S.aureus MRSA
Experimental: Antibacterial minimum inhibitory concentrations (MICs) were obtained from three independent experiments using broth microdilution methods in 96-well plates according to Clinical and Laboratory Standards Institute guidelines. Cells were culture from singles colonies in MHIIB medium for 24 h at 37° C. in agitation (200 RPM). The cultures were then diluted using the same media to reach an OD600 of 0.1. Then, 50 µL of the diluted cultures were added to the plates holding 50 µL of serially diluted compounds in MHIIB. The plates were incubated at 37° C. for 20 h. The starting inoculum was fixated to 10^5 colony-forming units per ml.

E. coli DNA gyrase [1] = molecular target: T1, E. coli DNA gyrase (Escherichia coli (strain K12), UniProt P0AES4+P0AES6); assay: Agarose gel-based DNA gyrase inhibition assay; format: biochemical
Experimental: 100 ng of DNA gyrase was used to supercoil the rx pAB1 in the presence of different concentrations of a gyrase inhibitor. […] Samples were analyzed by electrophoresis in 1% w/v agarose gels followed by ethidium bromide staining and photographed under UV light.

E. coli DNA gyrase [2] = molecular target: T1, E. coli DNA gyrase; assay: biochemical; format: biochemical
S. aureus (ATCC 14775) = assay: Minimum inhibitory concentration, broth microdilution; conditions: Staphylococcus aureus, ATCC14775, read-out: Minimum Inhibitory Concentration S.aureus
[3] = IC50 (50-200 µM), bin of Table 2
[4] = IC50 ([…]-50 µM), bin of Table 2
[5] = IC50 (15-[…] µM), bin of Table 2
[6] = IC50 against E. coli DNA gyrase

| Compound | inhibition of E. coli DNA gyrase activities (E. coli DNA gyrase [1]; 200 µM of compounds) | IC50 (E. coli DNA gyrase [2]; [3]) [µM] | inhibition of E. coli DNA gyrase activities (E. coli DNA gyrase [1]; 50 µM of compounds) | other results |
| --- | --- | --- | --- | --- |
| COC(=O)c1c(NC(=O)CC2Nc3ccccc3NC2=O)sc(C)c1C (stereo not drawn) [Compound 55] | almost completely inhibited | 50 to 200 |  | MIC (MRSA): 25 µM (≈ 9.34 µg/mL) |
| CCOC(=O)C1=C(Nc2ccc(C)cc2)S/C(=C\c2ccc(-c3ccccc3C(=O)O)o2)C1=O [Compound 60] | completely inhibited | 50 to 200 |  |  |
| O=C1/C(=C/c2ccc(O)cc2)SC(=S)N1CC1CCCO1 (stereo not drawn) [Compound 61] | almost completely inhibited | 50 to 200 |  |  |
| O=C(O)CC(C(=O)O)N1C(=O)/C(=C/c2ccc(-c3nc4ccccc4s3)o2)SC1=S (stereo not drawn) [Compound 62] | completely inhibited | 50 to 200 | almost completely inhibited |  |
| Cc1cc(/C=C(/C#N)c2nc3ccccc3[nH]2)c(C)n1-c1cc(C(=O)O)cc(C(=O)O)c1 [Compound 63] | completely inhibited | 50 to 200 |  |  |
| Cc1cc(C(=O)Nc2ccccc2C(=O)O)ccc1NC(=O)COc1ccccc1Cl [Compound 65] | almost completely inhibited | 50 to 200 |  |  |
| CCOC(=O)C1=C(C)NC(=O)NC1c1ccc(N2CCC(c3ccccc3)=N2)cc1 (stereo not drawn) [Compound 68] | almost completely inhibited | 50 to 200 |  |  |
| Cc1cc(-c2csc(N)n2)c(C)n1-c1ccccc1.Cl [Compound 70] | completely inhibited | 50 to 200 |  |  |
| O=C(O)C1Nc2ccccc2C2C=CCC12 (stereo not drawn) [Compound 83] | completely inhibited | 50 to 200 | almost completely inhibited | inhibition of E. coli DNA gyrase activities (E. coli DNA gyrase [2]): inhibit E. coli DNA gyrase strongly |
| c1ccc(Nc2nc(N3CCCC3)c3ccccc3n2)cc1 [Compound 102] |  |  | completely inhibited | IC50 (E. coli DNA gyrase [2]; [4]): 25 to 50 µM |
| Cc1cc2c3c(c1)C1CC=CC1C(C(=O)O)N3CC1CC=CC21 (stereo not drawn) [Compound 106] |  | 50 to 200 | potently inhibited | inhibition of E. coli DNA gyrase activities (E. coli DNA gyrase [2]): inhibit E. coli DNA gyrase strongly |
| CNc1nnc(-c2ccc(C)cc2)c2ccccc12 [Compound 108] |  |  | completely inhibited | MIC (MRSA): 200 µM (≈ 49.9 µg/mL); IC50 (E. coli DNA gyrase [2]; [5]): 15 to 25 µM; MIC (S. aureus (ATCC 14775)): 200 µM (≈ 49.9 µg/mL) |
| Cc1onc(-c2ccccc2)c1C(=O)Nc1sccc1C#N [Compound 112] |  | 50 to 200 | potently inhibited |  |
| C(=Cc1ccco1)c1nc2ccccc2[nH]1 [Compound 129] |  | 50 to 200 | potently inhibited |  |
| CCOc1ccc(S(=O)(=O)Nc2nc3ccccc3nc2Nc2ccc(N3CCOCC3)cc2)cc1 [Compound 130] |  | 50 to 200 | potently inhibited |  |
| N#CC(C#N)=C1C=CC=CN1C(=Cc1ccccc1)C(=O)c1cccs1 [Compound 131] |  | 50 to 200 | potently inhibited |  |
| CCOC(=O)[C@@H]1Nc2ccc(C(=O)O)cc2[C@@H]2C=CC[C@H]12 [Compound 141] |  |  | potently inhibited | inhibition of E. coli DNA gyrase activities (E. coli DNA gyrase [2]): inhibit E. coli DNA gyrase strongly |
| Cc1cccc(/N=C2/NC(=O)/C(=C\C=C\c3ccco3)S2)c1C [Compound 149] |  |  | completely inhibited | IC50 (E. coli DNA gyrase [2]; [5]): 15 to 25 µM |
| O=C1N/C(=N\c2ccc3ccccc3c2)S/C1=C/c1ccco1 [Compound 163] |  |  | completely inhibited | IC50 (E. coli DNA gyrase [2]; [5]): 15 to 25 µM |

| Compound | inhibition of E. coli DNA gyrase activities (E. coli DNA gyrase [1]; 200 µM of compounds) | IC50 (E. coli DNA gyrase [2]; [3]) [µM] | inhibition of E. coli DNA gyrase activities (E. coli DNA gyrase [1]; 50 µM of compounds) | other results |
| --- | --- | --- | --- | --- |
| O=C(/C=C/c1ccco1)Nc1cccc2cccnc12 [Compound 164] |  |  |  | MIC (MRSA): 200 µM (≈ 52.9 µg/mL); MIC (S. aureus (ATCC 14775)): 200 µM (≈ 52.9 µg/mL) |
| N#Cc1sc2nc(-c3ccccc3)cc(-c3ccco3)c2c1N [Compound 167] |  | 50 to 200 | potently inhibited |  |
| O=C1/C(=C/c2ccc(O)cc2)SC(=S)N1Cc1cccnc1 [Compound 168] |  | 50 to 200 | potently inhibited |  |
| Cc1ccc(/N=C2N=C(O)/C(=C/C=C/c3ccco3)S\2)cc1C [Compound 169] |  |  | completely inhibited | IC50 (E. coli DNA gyrase [2]; [5]): 15 to 25 µM |
| Cc1cc(/C=C2/SC(=S)N(c3cccc(Cl)c3)C2=O)c(C)n1-c1cccnc1 [Compound 171] |  |  | completely inhibited | IC50 (E. coli DNA gyrase [2]; [5]): 15 to 25 µM |
| O=C(NN1C(=O)/C(=C\C=C\c2ccco2)SC1=S)c1ccccc1O [Compound 180] |  |  | completely inhibited | IC50 (E. coli DNA gyrase [2]; [5]): 15 to 25 µM |
| O=C1N=C(O)/C(=C/c2ccc(N3CCCC3)cc2)C(=O)N1Cc1ccc(F)cc1 [Compound 184] |  |  | potently inhibited | MIC (MRSA): 200 µM (≈ 78.7 µg/mL); IC50 (E. coli DNA gyrase [2]; [5]): 15 to 25 µM; MIC (S. aureus (ATCC 14775)): 200 µM (≈ 78.7 µg/mL) |
| COC(=O)C1C2CC3c4[nH]c5cc(OC)ccc5c4CCN3CC2CC(OC(=O)c2ccc(N)cc2)C1OC (stereo not drawn) [Compound 204] | potently inhibited | 50 to 200 |  |  |
| O=C1C(Cl)=C(NCCc2ccccc2)C(=O)c2ccccc21 [Compound 205] | potently inhibited | 50 to 200 |  |  |
| O=C1c2ccccc2C(=O)c2cc(N3CCCCC3)ccc21 [Compound 206] | potently inhibited | 50 to 200 |  |  |
| O=C(Cc1ccccc1)c1ccccn1 [Compound 213] | completely inhibited | 50 to 200 |  |  |
| CCN(CCCNc1cc2c(c(N)c1S(=O)(=O)O)C(=O)c1ccccc1C2=O)c1ccccc1 [Compound 215] | completely inhibited |  | completely inhibited | IC50 (E. coli DNA gyrase [2]; [4]): 25 to 50 µM |
| Cc1ccc([S+]([O-])c2ccc([N+](=O)[O-])c3nonc23)cc1 (stereo not drawn) [Compound 222] | completely inhibited |  | completely inhibited | IC50 (E. coli DNA gyrase [2]; [4]): 25 to 50 µM |
| COC1C(C)OC(OC2CC(C)(O)Cc3cc4c(c(O)c32)C(=O)c2c(O)cc3c(c2C4=O)OC2OC3(C)C(O)C(N(C)C)C2O)C(OC)C1(C)OC (stereo not drawn) [Compound 224] | completely inhibited |  | completely inhibited | IC50 (E. coli DNA gyrase [2]; [4]): 25 to 50 µM |
| CCN1C(=O)C(=CC=CN(C)c2ccccc2)SC1=S [Compound 227] | potently inhibited | 50 to 200 |  |  |
| CN(C)c1ccc(C=C2SC(=S)N(Cc3ccco3)C2=O)cc1 [Compound 228] | potently inhibited | 50 to 200 |  |  |
| Cc1cc(O)c2c(c1)C(=O)c1cc(O)cc(O)c1C2=O [Compound 242, Emodin] | completely inhibited | 50 to 200 |  | inhibition of E. coli DNA gyrase activities (E. coli DNA gyrase [2]): potently inhibited |
| O=C1OC2(c3ccccc31)c1cc(I)c(O)c(I)c1Oc1c2cc(I)c(O)c1I [Compound 253, Erythrosin B] | completely inhibited |  |  | IC50 (E. coli DNA gyrase [2]; [6]): < 10 µM |
| O=C1c2ccccc2C(=O)c2c1ccc(O)c2O [Compound 256, Alizarin] | completely inhibited |  |  | IC50 (E. coli DNA gyrase [2]; [4]): 25 to 50 µM; IC50 (E. coli DNA gyrase [2]; [6]): < 10 µM |
